Measurements reported in US5908781A, “Monoclonal antibodies to ceftiofur” (The United States of America as represented by the …, priority 1996, dated 1999).

What was measured:
Cef-68 = assay: Competitive indirect ELISA (ciELISA), competitor inhibition of MAb Cef-68 binding; design: species or system Balb/c mice; conditions: for IC50 (ppb) Values for Antibodies, Cef-68: MAb Cef-68, final dilution 1:20, BSA-S-GMBS-Cef-coated plates, value ± standard deviation, average of 3-6 determinations; for binding with MAb Cef-68 (in words): ciELISA cross-reactivity
Experimental: (§1) The supernatant culture fluid from the cloned hybridomas may also be screened to select for those producing antibodies having a high affinity for ceftiofur. Affinity may be measured using a variety of well known techniques, such as ELISA, RIA or equilibrium dialysis using labeled ceftiofur. […] In accordance with this embodiment, the antibody containing supernatant is added to a ceftiofur or ceftiofur-complex coated substrate such as the wells of a microtiter plate, together with a range of concentrations of free ceftiofur as a competitor. Following incubation and washing, bound antibody in the wells is determined in the same manner as the db-ELISA. Percent inhibition may be calculated as (1-B/Bo)×100, where B is the optical density (OD) of a well with a competitor and Bo is the mean OD of the wells without competitor (control). […] However, for greater accuracy, the affinity may be alternatively measured at 50% inhibition (IC50).
(§2) Antibodies and ELISA Methods. A standard indirect ELISA method in which the hapten conjugate is immobilized on 96-well microtiter plates was used to evaluate the response of Balb/c mice towards the immunogen KLH-SMCC-desCef. The microtiter immunoplates (PGC Scientifics, Gaithersburg, Md.) were washed three times with a solution of 0.05% (v/v) polyoxyethylene sorbitan monolaurate (TWEEN 20)(Sigma Chemical Co., St. Louis, Mo.) in deionized water (TWEEN 20-water) and then coated with 100 μL of the coating antigen, BSA-SMCC-desCef (100 ng/well) in deionized water. The plates were dried overnight at 37° C. The plates were then washed three times with PBS-9 (0.01M sodium phosphate, 0.15M sodium chloride, pH 9) and the unbound active sites were blocked with 200 μL of 3% (w/v) nonfat milk in PBS-9 for 30 min at 37° C. The plates were washed three times with PBS-9, and 100 μL of supernatant containing the antibody was added to the microtiter plates, which were subsequently incubated for 60 min at 37° C. The unbound antibody was removed by washing the plate five times with TWEEN 20-water. Next, 50 μL of goat anti-mouse IgG-peroxidase conjugate (1:500 dilution)(Sigma Chemical Co., St. Louis, Mo.) was added, followed by incubation of the plates at 37° C. for 60 min. Finally, the plates were washed five times with TWEEN 20-water, 100 μL of K-blue substrate (Elisa Technologies, Lexington, Ky.) was added, and the absorbance was read at 655 nm.
(§3) For the ciELISA, the plates were prepared as above except that BSA-S-GMBS-Cef was used as the plate-coating antigen. Competitors were prepared in assay buffer (0.1M Tris, 0.15M sodium chloride, 0.01% (w/v) nonfat milk in deionized water, pH 7.75), added to the wells, and diluted in a 2-fold fashion immediately prior to addition of the anticeftiofur monoclonal antibody (Mab). Tissue culture media containing the anticeftiofur MAbs were used at a final dilution of 1:20 and 1:100 (for MAbs Cef-68 and Cef-116, respectively). The following competitors were used in a cross-reactivity study: ceftiofur sodium, cefteram sodium (Hoffmann-La Roche Inc., Nutley, N.J.), ceftriaxone sodium (Hoffmann-La Roche), cefuroxime sodium (Glaxo Man. Serv. Ltd., Barnard Castle, County Durham, England), ceftazidime pentahydrate (Glaxo), amoxicillin, ampicillin sodium, cefaclor, cefadroxil, cefamandole sodium, cefazolin sodium, cefoperazone sodium, cefotaxime sodium, cefoxitin sodium, cefsulodin sodium, cephalothin sodium, cephapirin sodium, cephradine, cloxacillin sodium, and penicillin-G sodium. Except where indicated otherwise, competitors were obtained from Sigma Chemical Co. (St. Louis, Mo.). The competitors were diluted to afford a solution containing a concentration range of 100-1000 ng/well in column 2 of the 96-well microtiter plates. Each competitor was serially diluted across the plate with columns 11 and 12 serving as controls (i.e. no competitor).

Cef-116 = assay: Competitive indirect ELISA (ciELISA), competitor inhibition of MAb Cef-116 binding; design: species or system Balb/c mice; conditions: for IC50 (ppb) Values for Antibodies, Cef-116: MAb Cef-116, final dilution 1:100, BSA-S-GMBS-Cef-coated plates, value ± standard deviation, average of 3-6 determinations; for IC50 compared to ceftiofur, MAb Cef-116 (in words): ciELISA cross-reactivity; for fold reduction of binding: MAb Cef-116, printed "as compared to MAb Cef-68"
Experimental: as §1, §2, §3

Row | SMILES | IC50 (ppb) Values for Antibodies, Cef-68 (Cef-68) [ppb] | binding with MAb Cef-68 (in words) (Cef-68) | IC50 (ppb) Values for Antibodies, Cef-116 (Cef-116) [ppb] | IC50 compared to ceftiofur, MAb Cef-116 (in words) (Cef-116) | fold reduction of binding (Cef-116) [fold]
1 | CO/N=C(\C(=O)N[C@@H]1C(=O)N2C(C(=O)O)=C(COC(C)=O)CS[C@H]12)c1csc(N)n1 [Cefotaxime, cefotaxime] | 79.67 ± 0.58 | observed to bind | 0.48 ± 0.05 | IC50 values comparable to those observed with ceftiofur | 
2 | CO/N=C(\C(=O)N[C@@H]1C(=O)N2C(C(=O)O)=C(Cn3nnc(C)n3)CS[C@H]12)c1csc(N)n1 [Cefteram, cefteram] | 200.00 ± 10.00 | observed to bind | 3.57 ± 0.75 |  | 10
3 | CO/N=C(\C(=O)N[C@@H]1C(=O)N2C(C(=O)O)=C(CSC(=O)c3ccco3)CS[C@H]12)c1csc(N)n1 [Ceftiofur, ceftiofur] | 32.33 ± 0.58 |  | 0.33 ± 0.05 |  | 
4 | CO/N=C(\C(=O)N[C@@H]1C(=O)N2C(C(=O)O)=C(CSc3nc(=O)c(=O)[nH]n3C)CS[C@H]12)c1csc(N)n1 [Ceftriaxone, ceftriaxone] | 38.67 ± 8.62 | observed to bind | 0.33 ± 0.05 | IC50 values comparable to those observed with ceftiofur | 
5 | CO/N=C(\C(=O)N[C@@H]1C(=O)N2C(C(=O)O)=C(COC(N)=O)CS[C@H]12)c1ccco1 [Cefuroxime, cefuroxime] |  |  | 406.67 ± 130.13 |  | 100
